Data reported in patent US20090018111A1, “Novel Antimicrobial Medicament” (priority 2004, published 2009).
Where two headings read alike, the source gives them in different places.

How the values were obtained:
Experiment in all cases: Sensitivity test (agar dilution), clinical isolate
[1] = system: Acinetobacter spp. 1195; assay type: cell-based, Acinetobacter calcoaceticus and Acinetobacter lwoffi
Description: (§1) In addition, the antibacterial activities were tested against strains which are comparatively less sensitive to β-lactam compounds, namely clinically isolated 13 strains of Acinetobacter calcoaceticus and Acinetobacter lwoffi, clinically isolated 11 strains of Serratia marcescens, clinically isolated 12 strains of Burkholderia cepacia, and clinically isolated 15 strains of Pseudomonas aeruginosa.
(§2) According to the standard method of Japan Chemotherapeutic Society (Chemotherapy, vol. […], p 76-79 (1981)) the test was carried out using the agar dilution method. After dissolving test samples in distilled water, agar medium containing the test samples was prepared in such a manner that the final concentration became twice serial dilution by pouring serially diluted combination drug solution or a single drug solution into agar medium. As agar medium was used Mueller Hinton Agar medium (MHA). Then, each strain was cultivated over night at 37° C. in an incubator and suspended in buffered saline solution with gelatin (BSG) in the concentration of about 10^6 CFU/ml. The suspension (about 5 μl) containing test strains was inoculated to the medium containing the test samples by Micro Planter.
(§3) Each drug was weighed, and dissolved in distilled water to give a test sample. When the drugs are used in combination, two kinds of solution containing each drug were mixed so as to be various ratio of concentration to give a mixed solution. When the sample is subjected to sensitivity test, this mixed solution was diluted by twice serial dilution method.
(§4) Furthermore, when the drug is solely used, each test sample was used as it is, and diluted by twice serial dilution method from the maximum concentration to the minimum concentration.

[2] = system: Acinetobacter spp. 1198; assay type: cell-based, Acinetobacter calcoaceticus and Acinetobacter lwoffi
Description: as §1, §2, §3, §4

[3] = system: Acinetobacter spp. 1338-2; assay type: cell-based, Acinetobacter calcoaceticus and Acinetobacter lwoffi
Description: as §1, §2, §3, §4

[4] = system: Acinetobacter spp. 1398-2; assay type: cell-based, Acinetobacter calcoaceticus and Acinetobacter lwoffi
Description: as §1, §2, §3, §4

[5] = system: Acinetobacter spp. 1399-2; assay type: cell-based, Acinetobacter calcoaceticus and Acinetobacter lwoffi
Description: as §1, §2, §3, §4

[6] = system: Acinetobacter spp. 14712; assay type: cell-based, Acinetobacter calcoaceticus and Acinetobacter lwoffi
Description: as §1, §2, §3, §4

[7] = system: Acinetobacter spp. 175; assay type: cell-based, Acinetobacter calcoaceticus and Acinetobacter lwoffi
Description: as §1, §2, §3, §4

[8] = system: Acinetobacter spp. 227-1; assay type: cell-based, Acinetobacter calcoaceticus and Acinetobacter lwoffi
Description: as §1, §2, §3, §4

[9] = system: Acinetobacter spp. 256; assay type: cell-based, Acinetobacter calcoaceticus and Acinetobacter lwoffi
Description: as §1, §2, §3, §4

[10] = system: Acinetobacter spp. Jan-54; assay type: cell-based, Acinetobacter calcoaceticus and Acinetobacter lwoffi
Description: as §1, §2, §3, §4

[11] = system: Acinetobacter spp. Jan-81; assay type: cell-based, Acinetobacter calcoaceticus and Acinetobacter lwoffi
Description: as §1, §2, §3, §4

[12] = system: Acinetobacter spp. Jan-99 (second line, r15); assay type: cell-based, Acinetobacter calcoaceticus and Acinetobacter lwoffi
Description: as §1, §2, §3, §4

[13] = system: Acinetobacter spp. Jan-99; assay type: cell-based, Acinetobacter calcoaceticus and Acinetobacter lwoffi
Description: as §1, §2, §3, §4

[14] = system: S. marcescens 2012884; assay type: cell-based, Serratia marcescens
Description: as §1, §2, §3, §4

[15] = system: P. aeruginosa 13221; assay type: cell-based, Pseudomonas aeruginosa
Description: as §1, §2, §3, §4

In the case of C[C@@H](O)[C@H]1C(=O)N2C(C(=O)O)=C(S[C@@H]3CN[C@H](C(=O)N(C)C)C3)[C@H](C)[C@H]12 [MEPM, meropenem], the MIC ([1]; SPP.1195) is reported as 0.125 µg/mL, the MIC ([1]; SPP.1195, Concomitant (ME:SM = 1:1), read-out: MIC) is reported as 0.25 µg/mL and the MIC ([1]; SPP.1195, Concomitant (ME:SM = 1:4), read-out: MIC) is reported as 0.063 µg/mL. It also gave an MIC ([1]; SPP.1195, Concomitant (ME:SM = 2:1), read-out: MIC) of 0.25 µg/mL, an MIC ([1]; SPP.1195, alone, read-out: MIC) of 0.25 µg/mL and an MIC ([2]; SPP.1198) of 0.125 µg/mL. The MIC ([2]; SPP.1198, Concomitant (ME:SM = 1:1), read-out: MIC) was 0.25 µg/mL, the MIC ([2]; SPP.1198, Concomitant (ME:SM = 1:4), read-out: MIC) was 0.063 µg/mL and the MIC ([2]; SPP.1198, Concomitant (ME:SM = 2:1), read-out: MIC) was 0.25 µg/mL. It also gave an MIC ([2]; SPP.1198, alone, read-out: MIC) of 0.5 µg/mL, an MIC ([3]; SPP.13382) of 0.125 µg/mL and an MIC ([3]; SPP.13382, Concomitant (ME:SM = 1:1), read-out: MIC) of 0.5 µg/mL. The MIC ([3]; SPP.13382, Concomitant (ME:SM = 1:2), read-out: MIC) was 0.5 µg/mL, the MIC ([3]; SPP.13382, Concomitant (ME:SM = 2:1), read-out: MIC) was 0.5 µg/mL and the MIC ([3]; SPP.13382, alone, read-out: MIC) was 1 µg/mL. The MIC ([4]; SPP.13982, Concomitant (ME:SM = 1:1)) was 2 µg/mL, the MIC ([4]; SPP.13982, Concomitant (ME:SM = 1:2)) was 2 µg/mL and the MIC ([4]; SPP.13982, Concomitant (ME:SM = 1:4)) was 1 µg/mL. For the same molecule, the MIC ([4]; SPP.13982, Concomitant (ME:SM = 2:1)) was 4 µg/mL, the MIC ([4]; SPP.13982, alone) was 32 µg/mL and the MIC ([5]; SPP.13992, Concomitant (ME:SM = 1:1)) was 0.5 µg/mL. It also gave an MIC ([5]; SPP.13992, Concomitant (ME:SM = 1:2)) of 0.5 µg/mL, an MIC ([5]; SPP.13992, Concomitant (ME:SM = 1:4)) of 0.25 µg/mL and an MIC ([5]; SPP.13992, Concomitant (ME:SM = 2:1)) of 0.5 µg/mL. It also gave an MIC ([5]; SPP.13992, alone) of 0.5 µg/mL, an MIC ([6]; SPP.14712, Concomitant (ME:SM = 1:1)) of 0.5 µg/mL and an MIC ([6]; SPP.14712, Concomitant (ME:SM = 1:2)) of 0.5 µg/mL. The MIC ([6]; SPP.14712, Concomitant (ME:SM = 1:4)) was 0.25 µg/mL, the MIC ([6]; SPP.14712, Concomitant (ME:SM = 2:1)) was 0.5 µg/mL and the MIC ([6]; SPP.14712, alone) was 1 µg/mL. It also gave an MIC ([7]; Acinetobacter, SPP.175) of 0.125 µg/mL, an MIC ([7]; Acinetobacter, SPP.175, Concomitant (ME:SM = 1:2), read-out: MIC) of 0.063 µg/mL and an MIC ([7]; Acinetobacter, SPP.175, Concomitant (ME:SM = 1:4), read-out: MIC) of 0.063 µg/mL. The MIC ([7]; Concomitant (ME:SM = 1:1)) was 0.125 µg/mL, the MIC ([7]; Concomitant (ME:SM = 2:1)) was 0.125 µg/mL and the MIC ([8]; SPP.2271, Concomitant (ME:SM = 1:1)) was 0.5 µg/mL. It also gave an MIC ([8]; SPP.2271, Concomitant (ME:SM = 1:2)) of 0.5 µg/mL, an MIC ([8]; SPP.2271, Concomitant (ME:SM = 1:4)) of 0.25 µg/mL and an MIC ([8]; SPP.2271, Concomitant (ME:SM = 2:1)) of 0.5 µg/mL. The MIC ([8]; SPP.2271, alone) was 1 µg/mL, the MIC ([9]; SPP.256, Concomitant (ME:SM = 1:1)) was 0.5 µg/mL and the MIC ([9]; SPP.256, Concomitant (ME:SM = 1:2)) was 0.5 µg/mL. It also gave an MIC ([9]; SPP.256, Concomitant (ME:SM = 1:4)) of 0.25 µg/mL, an MIC ([9]; SPP.256, Concomitant (ME:SM = 2:1)) of 0.5 µg/mL and an MIC ([9]; SPP.256, alone) of 1 µg/mL. It also gave an MIC ([10]; Concomitant (ME:SM = 1:1)) of 0.5 µg/mL, an MIC ([10]; Concomitant (ME:SM = 1:2)) of 0.5 µg/mL and an MIC ([10]; Concomitant (ME:SM = 1:4)) of 0.25 µg/mL. It also gave an MIC ([10]; Concomitant (ME:SM = 2:1)) of 0.5 µg/mL, an MIC ([10]; alone) of 1 µg/mL and an MIC ([11]; Concomitant (ME:SM = 1:1)) of 8 µg/mL. For the same molecule, the MIC ([11]; Concomitant (ME:SM = 1:2)) was 2 µg/mL, the MIC ([11]; Concomitant (ME:SM = 1:4)) was 2 µg/mL and the MIC ([11]; Concomitant (ME:SM = 2:1)) was 4 µg/mL. The MIC ([11]; alone) was 4 µg/mL, the MIC [12] was 0.125 µg/mL and the MIC ([12]; Concomitant (ME:SM = 1:1), read-out: MIC) was 0.5 µg/mL. It also gave an MIC ([12]; Concomitant (ME:SM = 1:2), read-out: MIC) of 0.25 µg/mL, an MIC ([12]; Concomitant (ME:SM = 2:1), read-out: MIC) of 0.5 µg/mL and an MIC ([12]; alone, read-out: MIC) of 0.5 µg/mL. For the same molecule, the MIC ([13]; Acinetobacter) was 0.125 µg/mL, the MIC ([13]; Acinetobacter, Concomitant (ME:SM = 1:1), read-out: MIC) was 0.25 µg/mL and the MIC ([13]; Acinetobacter, Concomitant (ME:SM = 2:1), read-out: MIC) was 0.25 µg/mL. It also gave an MIC ([13]; Acinetobacter, alone, read-out: MIC) of 0.25 µg/mL, an MIC ([13]; Concomitant (ME:SM = 1:2)) of 0.125 µg/mL and an MIC ([14]; Serratia marcescens, 2012884, Concomitant (ME:SM = 1:1)) of 2 µg/mL. For the same molecule, the MIC ([14]; Serratia marcescens, 2012884, Concomitant (ME:SM = 1:2)) was 2 µg/mL, the MIC ([14]; Serratia marcescens, 2012884, Concomitant (ME:SM = 1:4)) was 1 µg/mL and the MIC ([14]; Serratia marcescens, 2012884, Concomitant (ME:SM = 2:1)) was 4 µg/mL. It also gave an MIC ([14]; Serratia marcescens, 2012884, alone) of 4 µg/mL, an MIC ([15]; Concomitant (ME:SM = 1:1)) of 0.125 µg/mL and an MIC ([15]; Concomitant (ME:SM = 1:2)) of 0.125 µg/mL. It also gave an MIC ([15]; Pseudomonas aeruginosa, 13221) of 0.125 µg/mL, an MIC ([15]; Pseudomonas aeruginosa, 13221, Concomitant (ME:SM = 1:4), read-out: MIC) of 0.063 µg/mL and an MIC ([15]; Pseudomonas aeruginosa, 13221, Concomitant (ME:SM = 2:1), read-out: MIC) of 0.063 µg/mL.
